From US20250241923A1, “A DUAL SELECTIVE PI3K DELTA AND GAMMA INHIBITORS AND/OR A SALT-INDUCIBLE KINASE 3 INHIBITOR FOR TREATING SOLID TUMORS” (Incozen Therapeutics Pvt. Ltd, priority 2022, published 2025)

What was measured:
[1] = Metabolic stability in liver microsomes, mouse; type: in vitro ADME
Source text: (§1) In in vitro studies using liver microsomes, the metabolic stability of tenalisib followed the rank order of rat>human>dog>monkey>mouse (Table 3).

[2] = In vitro plasma stability, rat plasma; type: in vitro ADME; details: LC-MS/MS
Description: (§2) In vitro plasma stability studies were performed using rat, dog, monkey and human plasma. The concentration of tenalisib was measured by LC-MS/MS.

[3] = In vitro plasma stability, monkey plasma; type: in vitro ADME; details: LC-MS/MS
Description: as §2

[4] = system: plasma proteins; assay: In vitro protein binding, human plasma; type: in vitro ADME
Description: (§3) In vitro protein binding studies were performed using rat, dog, monkey and human plasma. Binding of tenalisib to plasma proteins was >96% across all species.

[5] = system: plasma proteins; assay: In vitro protein binding, monkey plasma; type: in vitro ADME
Description: as §3

[6] = system: locally advanced or metastatic breast cancer; assay: Phase II randomized open label study in breast cancer patients; type: in vivo, human
Description: This is a Phase II, randomized, open label study, designed to evaluate the preliminary efficacy and safety of tenalisib (Compound A) at two dose levels (800 mg BID and 1200 mg BID) in 40 patients with locally advanced or metastatic breast cancer. 20 patients will be enrolled in each of Group 1 (tenalisib 800 mg BID) and Group 2 (tenalisib 1200 mg BID). Both groups will be run in parallel.
• 1. Provision of full informed consent prior to any study-specific procedures. • 2. Patients must be ≥18 years of age, at the time of signing informed consent. • 3. Female patients who have histologically and/or cytologically confirmed locally advanced or metastatic breast cancer that has progressed following at least one line of therapy. • 4. Patients with at least one measurable lesion per RECIST version 1.1 at baseline that can be accurately assessed by CT scan or MRI and is suitable for repeated assessment at follow up-visits. • 5. ECOG performance status 0 to 2. • 6. Life expectancy of at least 3 months. • 7. […] Female patient of childbearing potential should be willing to use a medically acceptable method of contraception as defined in Appendix B while participating in the study and for 30 days after the last dose of study drug AND must have a negative serum pregnancy test within 3 days prior to Cycle 1 Day 1 (C1D1). • 9. Ability to swallow and retain oral medication. • 10. Willingness and capability to comply with the study requirements.

[7] = system: plasma proteins; assay: In vitro protein binding, rat plasma; type: in vitro ADME
Description: as §3

[8] = In vitro plasma stability, human plasma; type: in vitro ADME; details: LC-MS/MS
Description: as §2

[9] = target: T1, PI3Kβ (Mus musculus, UniProt Q8BTI9); assay: PI3K isoform cell-based assay: PI3K β-mediated phosphorylation of AKT in 3T3 fibroblasts; details: pAKT by PDGF or lysophosphatidic acid in 3T3 fibroblasts
T1 construct: endogenous in cells; host or cells: 3T3 fibroblasts (pAKT)

[10] = target: T2, PI3Kγ (Mus musculus, UniProt Q9JHG7); assay: PI3K isoform cell-based assay: c5a induced pAKT in RAW macrophages
T2 construct: endogenous in cells; host or cells: RAW macrophages (c5a induced pAKT)
T2 sequence (Q9JHG7 whole entry, canonical isoform): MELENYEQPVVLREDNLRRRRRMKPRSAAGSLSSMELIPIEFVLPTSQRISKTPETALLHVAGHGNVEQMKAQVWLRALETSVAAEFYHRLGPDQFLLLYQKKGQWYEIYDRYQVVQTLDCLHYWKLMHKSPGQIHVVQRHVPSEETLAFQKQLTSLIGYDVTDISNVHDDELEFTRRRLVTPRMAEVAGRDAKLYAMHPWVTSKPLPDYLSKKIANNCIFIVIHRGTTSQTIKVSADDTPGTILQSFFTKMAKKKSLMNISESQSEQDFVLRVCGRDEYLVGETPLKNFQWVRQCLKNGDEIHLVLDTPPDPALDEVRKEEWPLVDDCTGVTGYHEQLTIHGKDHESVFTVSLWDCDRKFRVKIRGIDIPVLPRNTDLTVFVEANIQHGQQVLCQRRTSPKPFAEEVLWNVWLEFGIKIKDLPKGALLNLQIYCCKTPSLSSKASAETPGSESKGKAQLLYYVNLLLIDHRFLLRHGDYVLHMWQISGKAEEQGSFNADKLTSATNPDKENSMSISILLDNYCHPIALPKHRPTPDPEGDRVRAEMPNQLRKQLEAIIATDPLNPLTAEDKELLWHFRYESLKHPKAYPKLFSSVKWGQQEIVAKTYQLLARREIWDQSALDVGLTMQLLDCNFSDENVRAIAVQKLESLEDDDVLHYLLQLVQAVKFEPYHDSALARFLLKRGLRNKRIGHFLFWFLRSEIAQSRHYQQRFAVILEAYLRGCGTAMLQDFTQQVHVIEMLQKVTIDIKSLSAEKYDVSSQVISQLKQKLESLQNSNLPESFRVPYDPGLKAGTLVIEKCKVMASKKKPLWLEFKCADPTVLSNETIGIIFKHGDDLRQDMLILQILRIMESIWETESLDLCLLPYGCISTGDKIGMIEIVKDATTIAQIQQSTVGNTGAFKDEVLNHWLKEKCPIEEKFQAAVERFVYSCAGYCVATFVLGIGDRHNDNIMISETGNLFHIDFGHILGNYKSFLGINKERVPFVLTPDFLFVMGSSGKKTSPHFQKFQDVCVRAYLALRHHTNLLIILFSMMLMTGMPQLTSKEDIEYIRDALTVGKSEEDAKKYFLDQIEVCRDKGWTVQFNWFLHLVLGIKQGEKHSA

[11] = Metabolic stability in liver microsomes, dog; type: in vitro ADME
Source text: as §1

[12] = target: PI3Kγ (Homo sapiens, UniProt P48736); assay: PI3K isoform enzyme assay (HTRF), PI3Kγ; type: biochemical; details: 100 μM ATP
PI3Kγ (Homo sapiens, UniProt P48736), sequence (P48736 whole entry, canonical isoform): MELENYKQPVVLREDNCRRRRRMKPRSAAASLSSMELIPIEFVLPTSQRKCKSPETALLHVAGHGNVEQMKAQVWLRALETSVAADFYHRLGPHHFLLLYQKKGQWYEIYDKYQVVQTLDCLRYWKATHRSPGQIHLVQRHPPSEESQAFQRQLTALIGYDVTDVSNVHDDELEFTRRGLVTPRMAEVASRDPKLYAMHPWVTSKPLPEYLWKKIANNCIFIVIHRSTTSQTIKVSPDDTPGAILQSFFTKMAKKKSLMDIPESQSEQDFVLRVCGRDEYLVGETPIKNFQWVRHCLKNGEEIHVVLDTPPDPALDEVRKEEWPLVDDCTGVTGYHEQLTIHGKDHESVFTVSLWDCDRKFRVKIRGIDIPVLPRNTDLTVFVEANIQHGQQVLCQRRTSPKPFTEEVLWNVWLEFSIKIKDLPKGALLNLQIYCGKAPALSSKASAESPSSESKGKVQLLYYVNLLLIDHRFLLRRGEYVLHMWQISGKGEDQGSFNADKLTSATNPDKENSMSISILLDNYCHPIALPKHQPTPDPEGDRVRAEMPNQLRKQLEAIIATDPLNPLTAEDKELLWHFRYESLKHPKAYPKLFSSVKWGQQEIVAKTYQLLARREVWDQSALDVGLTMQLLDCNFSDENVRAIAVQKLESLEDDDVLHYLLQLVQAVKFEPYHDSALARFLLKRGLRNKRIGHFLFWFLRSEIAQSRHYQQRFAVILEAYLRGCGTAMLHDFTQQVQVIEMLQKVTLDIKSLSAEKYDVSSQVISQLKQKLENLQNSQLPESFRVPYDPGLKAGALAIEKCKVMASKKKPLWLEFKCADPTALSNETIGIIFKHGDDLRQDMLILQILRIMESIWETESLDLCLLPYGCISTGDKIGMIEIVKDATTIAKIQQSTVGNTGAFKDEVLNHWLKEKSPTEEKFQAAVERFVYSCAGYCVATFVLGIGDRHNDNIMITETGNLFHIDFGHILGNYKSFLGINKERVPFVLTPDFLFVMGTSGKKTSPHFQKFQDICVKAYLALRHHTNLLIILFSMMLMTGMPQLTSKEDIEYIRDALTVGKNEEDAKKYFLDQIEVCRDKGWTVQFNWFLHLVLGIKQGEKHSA

[13] = Pharmacokinetic studies, absorption and clearance across the tested species; type: in vivo, mice, rats, dogs, humans and monkeys
Description: (§4) Pharmacokinetic studies following single-dose and repeat dose administration were performed in mice, rats, dogs, humans and monkeys. Tenalisib plasma concentrations were determined by a validated LC-MS/MS method. The pharmacokinetic profile of tenalisib was evaluated following both oral and intravenous administration. […] In an in vitro study using liver microsomes, the metabolic stability followed a rank order of rat>human>dog>monkey>mouse.

[14] = system: plasma proteins; assay: In vitro protein binding, dog plasma; type: in vitro ADME
Description: as §3

[15] = target: PI3Kδ (Homo sapiens, UniProt O00329); assay: PI3K isoform cell-based assay: anti-IgM induced human B-cell proliferation; design: endogenous in cells; host or cells: human B cells (anti-IgM proliferation); human whole blood (anti-FcεR1 induced CD63)
PI3Kδ, sequence (O00329 whole entry, canonical isoform): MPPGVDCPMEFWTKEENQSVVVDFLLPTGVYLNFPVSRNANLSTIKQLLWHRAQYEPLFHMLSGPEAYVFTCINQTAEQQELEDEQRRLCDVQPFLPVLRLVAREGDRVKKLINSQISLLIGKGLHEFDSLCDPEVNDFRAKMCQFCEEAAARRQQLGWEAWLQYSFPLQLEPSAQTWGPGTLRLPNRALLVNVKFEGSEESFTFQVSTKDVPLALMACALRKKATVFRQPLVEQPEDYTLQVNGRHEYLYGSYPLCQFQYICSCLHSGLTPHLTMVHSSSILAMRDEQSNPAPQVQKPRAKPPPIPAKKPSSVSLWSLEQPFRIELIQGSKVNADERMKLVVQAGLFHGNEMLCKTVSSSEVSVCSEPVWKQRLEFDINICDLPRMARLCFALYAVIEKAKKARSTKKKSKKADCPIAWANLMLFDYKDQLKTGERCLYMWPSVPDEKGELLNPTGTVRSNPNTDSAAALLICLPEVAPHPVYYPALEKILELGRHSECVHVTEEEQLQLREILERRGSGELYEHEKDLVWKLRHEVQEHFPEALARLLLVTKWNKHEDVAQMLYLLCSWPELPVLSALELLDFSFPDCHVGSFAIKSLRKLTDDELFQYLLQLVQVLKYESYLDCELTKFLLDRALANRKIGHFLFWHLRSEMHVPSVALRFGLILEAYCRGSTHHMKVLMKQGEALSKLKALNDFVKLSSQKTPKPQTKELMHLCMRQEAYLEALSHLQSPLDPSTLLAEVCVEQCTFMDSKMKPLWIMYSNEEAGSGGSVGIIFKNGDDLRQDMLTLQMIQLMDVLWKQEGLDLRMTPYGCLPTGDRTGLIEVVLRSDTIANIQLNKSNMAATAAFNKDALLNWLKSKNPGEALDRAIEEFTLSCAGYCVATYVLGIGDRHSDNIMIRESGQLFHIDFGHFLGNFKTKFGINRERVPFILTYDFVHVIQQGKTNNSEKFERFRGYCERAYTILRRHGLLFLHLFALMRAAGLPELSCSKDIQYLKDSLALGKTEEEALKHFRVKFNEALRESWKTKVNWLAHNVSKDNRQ
PI3Kδ, sequence (P27986 whole entry partner, canonical isoform): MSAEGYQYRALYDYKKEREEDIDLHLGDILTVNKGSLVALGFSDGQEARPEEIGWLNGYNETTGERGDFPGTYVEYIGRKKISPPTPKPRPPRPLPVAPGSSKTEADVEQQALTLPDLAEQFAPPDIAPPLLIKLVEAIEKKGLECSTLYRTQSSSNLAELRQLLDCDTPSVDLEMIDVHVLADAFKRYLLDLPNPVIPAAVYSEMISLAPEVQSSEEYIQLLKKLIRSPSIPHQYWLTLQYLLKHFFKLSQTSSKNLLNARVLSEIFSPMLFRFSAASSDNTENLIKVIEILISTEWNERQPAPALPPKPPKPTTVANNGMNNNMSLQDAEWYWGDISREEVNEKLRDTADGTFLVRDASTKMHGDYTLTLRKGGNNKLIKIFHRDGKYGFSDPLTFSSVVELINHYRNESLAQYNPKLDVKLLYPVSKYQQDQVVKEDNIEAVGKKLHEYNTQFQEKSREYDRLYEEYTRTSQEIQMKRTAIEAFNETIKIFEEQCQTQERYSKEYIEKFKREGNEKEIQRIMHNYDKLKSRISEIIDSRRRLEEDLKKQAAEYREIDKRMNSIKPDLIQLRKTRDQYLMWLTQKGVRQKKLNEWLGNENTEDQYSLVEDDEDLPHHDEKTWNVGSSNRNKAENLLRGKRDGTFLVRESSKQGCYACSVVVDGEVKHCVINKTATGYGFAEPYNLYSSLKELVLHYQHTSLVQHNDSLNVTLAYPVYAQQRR

[16] = system: MC38 syngeneic murine colon carcinoma; assay: MC38 syngeneic murine colon carcinoma C57BL/6 model; type: in vivo; details: day 22; daily tenalisib; C57BL/6 female mice
Description: Daily tenalisib alone and in combination with anti-PD-1 (clone: RMP1-14) was evaluated for tumor growth inhibition (TGI) in the MC38 syngeneic murine colon carcinoma model in immunocompetent C57BL/6 female mice.

[17] = Pharmacokinetics, oral bioavailability in mice; type: in vivo; details: mouse, plasma
Description: as §4

[18] = target: PI3Kβ (Homo sapiens, UniProt P42338); assay: PI3K isoform enzyme assay (HTRF), PI3Kβ; type: biochemical; details: 100 μM ATP
PI3Kβ (Homo sapiens, UniProt P42338), sequence (P42338 whole entry, canonical isoform): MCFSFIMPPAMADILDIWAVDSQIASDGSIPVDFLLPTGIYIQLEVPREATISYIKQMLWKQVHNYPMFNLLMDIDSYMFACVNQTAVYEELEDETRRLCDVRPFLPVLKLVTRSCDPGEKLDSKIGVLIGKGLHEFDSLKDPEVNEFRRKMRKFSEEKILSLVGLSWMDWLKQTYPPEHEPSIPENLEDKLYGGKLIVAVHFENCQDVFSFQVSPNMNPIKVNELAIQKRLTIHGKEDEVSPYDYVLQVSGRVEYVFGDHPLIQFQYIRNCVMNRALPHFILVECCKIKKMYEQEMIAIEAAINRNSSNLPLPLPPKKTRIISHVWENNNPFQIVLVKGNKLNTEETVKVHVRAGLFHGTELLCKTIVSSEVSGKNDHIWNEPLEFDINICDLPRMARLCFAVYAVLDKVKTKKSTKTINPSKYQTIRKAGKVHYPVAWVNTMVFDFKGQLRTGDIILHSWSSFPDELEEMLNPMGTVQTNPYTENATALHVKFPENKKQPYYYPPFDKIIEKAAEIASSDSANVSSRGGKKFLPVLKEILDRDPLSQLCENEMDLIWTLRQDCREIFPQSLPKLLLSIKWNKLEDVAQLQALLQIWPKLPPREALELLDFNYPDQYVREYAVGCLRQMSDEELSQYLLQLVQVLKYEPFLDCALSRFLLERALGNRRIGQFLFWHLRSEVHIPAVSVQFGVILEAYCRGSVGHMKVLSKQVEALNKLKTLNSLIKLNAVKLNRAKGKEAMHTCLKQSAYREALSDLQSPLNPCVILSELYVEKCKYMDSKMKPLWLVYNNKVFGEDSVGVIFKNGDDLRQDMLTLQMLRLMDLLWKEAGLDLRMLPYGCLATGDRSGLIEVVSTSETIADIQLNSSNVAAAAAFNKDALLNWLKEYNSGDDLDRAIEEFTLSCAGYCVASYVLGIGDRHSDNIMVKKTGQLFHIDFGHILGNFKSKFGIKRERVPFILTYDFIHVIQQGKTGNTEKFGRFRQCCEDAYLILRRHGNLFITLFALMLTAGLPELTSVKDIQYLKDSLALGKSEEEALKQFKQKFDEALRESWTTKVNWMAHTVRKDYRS
PI3Kβ (Homo sapiens, UniProt P42338), sequence (P27986 whole entry partner, canonical isoform): as the sequence (P27986 whole entry partner, canonical isoform) above

[19] = Pharmacokinetics, oral bioavailability in dogs; type: in vivo; details: dog, plasma
Description: as §4

[20] = Metabolic stability in liver microsomes, monkey; type: in vitro ADME
Source text: as §1

[21] = Metabolic stability in liver microsomes, rat; type: in vitro ADME
Source text: as §1

CC[C@H](Nc1ncnc2[nH]cnc12)c1oc2ccccc2c(=O)c1-c1cccc(F)c1 [Compound A, (S)-2-(1-(9H-purin-6-ylamino)propyl)-3-(3-fluorophenyl)-4H-chromen-4-one]
% Metabolic Stability [1]: 26.0%
plasma stability [2]: stable
plasma stability [3]: stable
Binding to plasma proteins [4]: > 96%
Binding to plasma proteins [5]: > 96%
Clinical Benefit Rate, % (CBR = PR + CR + SD ≥24 weeks) ([6]; 800 mg BID (N = 20)): (55) %
Clinical Benefit Rate, n (CBR = PR + CR + SD ≥24 weeks) ([6]; 800 mg BID (N = 20)): 11
Disease Control rate (DCR), % ([6]; 800 mg BID (N = 20)): (65) %
Duration of Clinical Benefit, median ([6]; 800 mg BID (N = 20)): 9.36
Duration of Response (DOR) in ORR patients, median ([6]; 800 mg BID (N = 20)): 7.53
Duration of Treatment (DOT), median ([6]; 800 mg BID (N = 20)): 5.55
Objective Response rate (ORR), % ([6]; 800 mg BID (N = 20)): (10) %
Partial Response, % ([6]; 800 mg BID (N = 20)): (10) %
Progressive disease, % ([6]; 800 mg BID (N = 20)): (25) %
Stable disease, % ([6]; 800 mg BID (N = 20)): (55) %
Clinical Benefit Rate, % (CBR = PR + CR + SD ≥24 weeks) ([6]; 1200 mg BID (N = 20)): (60) %
Clinical Benefit Rate, n (CBR = PR + CR + SD ≥24 weeks) ([6]; 1200 mg BID (N = 20)): 12
Disease Control rate (DCR), % ([6]; 1200 mg BID (N = 20)): (70) %
Duration of Clinical Benefit, median ([6]; 1200 mg BID (N = 20)): 7.46
Duration of Response (DOR) in ORR patients, median ([6]; 1200 mg BID (N = 20)): 9.36
Duration of Treatment (DOT), median ([6]; 1200 mg BID (N = 20)): 5.63
Objective Response rate (ORR), % ([6]; 1200 mg BID (N = 20)): (15) %
Partial Response, % ([6]; 1200 mg BID (N = 20)): (15) %
Progressive disease, % ([6]; 1200 mg BID (N = 20)): (20) %
Stable disease, % ([6]; 1200 mg BID (N = 20)): (55) %
Clinical Benefit Rate, % (CBR = PR + CR + SD ≥24 weeks) ([6]; All (N = 40)): (57.5) %
Clinical Benefit Rate, n (CBR = PR + CR + SD ≥24 weeks) ([6]; All (N = 40)): 23
Disease Control rate (DCR), % ([6]; All (N = 40)): (67.5) %
Duration of Clinical Benefit, median ([6]; All (N = 40)): 7.46
Duration of Response (DOR) in ORR patients, median ([6]; All (N = 40)): 9.36
Duration of Treatment (DOT), median ([6]; All (N = 40)): 5.60
Objective Response rate (ORR), % ([6]; All (N = 40)): (12.5) %
Partial Response, % ([6]; All (N = 40)): (12.5) %
Progressive disease, % ([6]; All (N = 40)): (22.5) %
Stable disease, % ([6]; All (N = 40)): (55) %
Binding to plasma proteins [7]: > 96%
plasma stability [8]: stable
EC50 [9]: 2070 nM
EC50 [10]: 22.3 nM
% Metabolic Stability [11]: 52.2%
IC50 [12]: 33.2 nM
Absorption [13]: rapid
clearance [13]: moderate
Binding to plasma proteins [14]: > 96%
selectivity over the α and β isoforms (cell-based assay) ([15]; PI3K δ/γ versus PI3K α and β): selective
EC50 ([15]; anti-IgM induced human B-cell proliferation): 38.1 nM
TGI (Tumour Growth Inhibition) compared to control [16]: 29%
bioavailability [17]: 21.6%
IC50 [18]: 4020 nM
bioavailability [19]: > 100%
% Metabolic Stability [20]: 29.6%
% Metabolic Stability [21]: 79.3%
